Assay results: patent publication US7880007B2, “Bicyclic substituted phenyl piperidine modulators of muscarinic receptors” (Vertex Pharmaceuticals Incorporated, priority 2004, dated 2011)

Experiments:
Type in all cases: cell-based
M4 muscarinic receptor = target: T1, M4 muscarinic receptor (Homo sapiens, UniProt P08173); assay: Functional mobilization of intracellular calcium (FLIPR), M4-CHO cells; conditions: for Emax: 100% efficacy = maximum response obtained with the Carbachol control; for M4 Activity: M4-CHO cells, calcium mobilization (FLIPR)
T1 construct: expressed in transfected cells; host or cells: CHO (M4-CHO)
T1 sequence (P08173 1-479): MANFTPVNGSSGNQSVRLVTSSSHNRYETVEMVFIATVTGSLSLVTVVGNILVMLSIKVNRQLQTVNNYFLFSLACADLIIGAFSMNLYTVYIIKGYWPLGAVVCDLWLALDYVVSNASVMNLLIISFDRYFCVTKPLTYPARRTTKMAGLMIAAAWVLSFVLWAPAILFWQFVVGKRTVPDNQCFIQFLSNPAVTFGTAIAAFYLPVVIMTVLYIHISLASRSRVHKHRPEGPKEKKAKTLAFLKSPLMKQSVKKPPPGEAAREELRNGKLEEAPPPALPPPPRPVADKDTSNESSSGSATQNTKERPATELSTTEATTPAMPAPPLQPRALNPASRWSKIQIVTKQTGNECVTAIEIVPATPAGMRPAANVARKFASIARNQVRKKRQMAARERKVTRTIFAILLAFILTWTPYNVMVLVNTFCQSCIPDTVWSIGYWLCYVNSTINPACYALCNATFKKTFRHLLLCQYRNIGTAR
Procedure, shortened: (§1)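 FLIPR fluorescence (ex 488, em 540 nm) recorded 60 sec after compound addition to dye-loaded CHO cells. Agonist mode: compound alone. Antagonist mode: 15 min compound pre-incubation, then carbachol at EC80, or co-application. Efficacy expressed as % of maximal carbachol response.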

M3 muscarinic receptor = target: T2, M3 muscarinic receptor (Homo sapiens, UniProt P20309); assay: Functional mobilization of intracellular calcium (FLIPR), M3-CHO cells; conditions: for Emax: 100% efficacy = maximum response obtained with the Carbachol control; for M3 Activity: M3-CHO cells, calcium mobilization (FLIPR)
T2 construct: expressed in transfected cells; host or cells: CHO (M3-CHO)
Procedure, shortened: as §1

M2 muscarinic receptor = target: T3, M2 muscarinic receptor (Homo sapiens, UniProt P08172); assay: Functional mobilization of intracellular calcium (FLIPR), M2-CHO cells; conditions: for Emax: 100% efficacy = maximum response obtained with the Carbachol control; for M2 Activity: M2-CHO cells, calcium mobilization (FLIPR)
T3 construct: expressed in transfected cells; host or cells: CHO (M2-CHO)
T3 sequence (P08172 1-466): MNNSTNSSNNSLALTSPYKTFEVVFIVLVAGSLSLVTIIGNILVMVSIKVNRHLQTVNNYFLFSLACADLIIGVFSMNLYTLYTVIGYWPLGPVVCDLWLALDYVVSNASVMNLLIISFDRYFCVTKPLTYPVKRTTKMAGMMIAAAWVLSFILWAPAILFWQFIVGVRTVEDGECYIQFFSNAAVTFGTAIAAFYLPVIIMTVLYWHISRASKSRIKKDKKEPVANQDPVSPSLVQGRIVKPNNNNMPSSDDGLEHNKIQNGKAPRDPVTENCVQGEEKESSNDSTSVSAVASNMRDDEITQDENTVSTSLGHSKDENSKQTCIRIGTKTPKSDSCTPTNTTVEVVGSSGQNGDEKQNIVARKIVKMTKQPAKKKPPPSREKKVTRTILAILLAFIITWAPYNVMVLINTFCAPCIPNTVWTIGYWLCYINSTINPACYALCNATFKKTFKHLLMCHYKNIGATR
Procedure, shortened: as §1

M1 muscarinic receptor = target: T4, M1 muscarinic receptor (Homo sapiens, UniProt P11229); assay: Functional mobilization of intracellular calcium (FLIPR), M1-CHO cells; conditions: for Emax: 100% efficacy = maximum response obtained with the Carbachol control; for M1 Activity: M1-CHO cells, calcium mobilization (FLIPR)
T4 construct: expressed in transfected cells; host or cells: CHO (M1-CHO)
T4 sequence (P11229 1-460): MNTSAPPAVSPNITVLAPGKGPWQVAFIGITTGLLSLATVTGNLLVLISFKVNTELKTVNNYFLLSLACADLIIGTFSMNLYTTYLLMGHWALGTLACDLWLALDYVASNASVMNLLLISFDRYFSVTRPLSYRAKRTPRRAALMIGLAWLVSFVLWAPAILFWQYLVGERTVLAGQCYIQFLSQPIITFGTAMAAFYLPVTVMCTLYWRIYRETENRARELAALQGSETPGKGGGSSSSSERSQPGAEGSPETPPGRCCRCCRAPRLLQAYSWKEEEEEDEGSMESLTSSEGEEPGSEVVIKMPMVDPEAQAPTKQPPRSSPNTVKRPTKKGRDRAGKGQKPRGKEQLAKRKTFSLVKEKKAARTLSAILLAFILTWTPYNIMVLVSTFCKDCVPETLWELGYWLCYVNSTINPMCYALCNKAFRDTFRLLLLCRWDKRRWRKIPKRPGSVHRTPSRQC
Procedure, shortened: as §1

T2 sequence (P20309 whole entry): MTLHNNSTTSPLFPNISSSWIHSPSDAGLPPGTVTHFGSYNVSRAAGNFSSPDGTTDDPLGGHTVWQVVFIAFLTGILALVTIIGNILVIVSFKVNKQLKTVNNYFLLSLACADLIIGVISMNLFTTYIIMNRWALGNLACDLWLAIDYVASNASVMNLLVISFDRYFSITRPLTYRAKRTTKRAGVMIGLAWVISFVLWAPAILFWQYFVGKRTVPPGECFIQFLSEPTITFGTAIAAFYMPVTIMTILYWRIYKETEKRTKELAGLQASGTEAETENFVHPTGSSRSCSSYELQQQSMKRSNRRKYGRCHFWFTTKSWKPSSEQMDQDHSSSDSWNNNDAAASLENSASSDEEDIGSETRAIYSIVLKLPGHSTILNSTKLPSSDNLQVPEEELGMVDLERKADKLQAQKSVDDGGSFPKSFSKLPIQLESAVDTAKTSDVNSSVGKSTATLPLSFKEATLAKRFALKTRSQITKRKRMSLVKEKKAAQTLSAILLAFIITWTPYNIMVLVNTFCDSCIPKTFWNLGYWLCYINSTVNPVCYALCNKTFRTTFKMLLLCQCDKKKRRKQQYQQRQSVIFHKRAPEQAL

SMILES	Emax (M4 muscarinic receptor) [%]	Emax (M3 muscarinic receptor) [%]	Emax (M2 muscarinic receptor) [%]	Emax (M1 muscarinic receptor) [%]	M4 Activity (M4 muscarinic receptor)	M3 Activity (M3 muscarinic receptor)	M2 Activity (M2 muscarinic receptor)	M1 Activity (M1 muscarinic receptor)
CCOC(=O)N1CCC(CN2CCC(OC)(c3cc(Cl)ccc3OC)CC2)CC1 [Compound 108]	25 to 100	< 25	< 25	25 to 100	+++ (activity was measured to be less than 1.0 μM)	+ (activity was measured to be greater than 5.0 μM)	++ (activity was measured to be from 1.0 μM to 5.0 μM)	+++ (activity was measured to be less than 1.0 μM)
c1ccc(-c2ccccc2C2CCN([C@H]3C[C@H]4CC[C@H]3C4)CC2)cc1 [Compound 110]	25 to 100	< 25	< 25	< 25	++ (activity was measured to be from 1.0 μM to 5.0 μM)	+ (activity was measured to be greater than 5.0 μM)	+ (activity was measured to be greater than 5.0 μM)	+ (activity was measured to be greater than 5.0 μM)
COCCOc1ccccc1C1CCN([C@H]2C[C@H]3CC[C@H]2C3)CC1 [Compound 111]	25 to 100	< 25	25 to 100	25 to 100	+++ (activity was measured to be less than 1.0 μM)	+ (activity was measured to be greater than 5.0 μM)	+ (activity was measured to be greater than 5.0 μM)	++ (activity was measured to be from 1.0 μM to 5.0 μM)
c1ccc(COc2ccccc2C2CCN([C@H]3C[C@H]4CC[C@H]3C4)CC2)cc1 [Compound 114]	25 to 100	< 25	< 25	< 25	++ (activity was measured to be from 1.0 μM to 5.0 μM)	+ (activity was measured to be greater than 5.0 μM)	+ (activity was measured to be greater than 5.0 μM)	+ (activity was measured to be greater than 5.0 μM)
COc1cccc(-c2ccccc2C2CCN([C@H]3C[C@H]4CC[C@H]3C4)CC2)c1 [Compound 116]	25 to 100	< 25	< 25	25 to 100	++ (activity was measured to be from 1.0 μM to 5.0 μM)	+ (activity was measured to be greater than 5.0 μM)	+ (activity was measured to be greater than 5.0 μM)	+ (activity was measured to be greater than 5.0 μM)
COc1ccccc1[C@H]1CCN([C@@H]2C[C@H]3CC[C@H]2C3)C[C@@H]1O [Compound 117]	25 to 100	< 25	< 25	< 25	+ (activity was measured to be greater than 5.0 μM)	+ (activity was measured to be greater than 5.0 μM)	+ (activity was measured to be greater than 5.0 μM)	+ (activity was measured to be greater than 5.0 μM)
CCOC(=O)N1C2CCC1CC(N1CCC(OC)(c3cc(F)ccc3OC)CC1)C2 (stereo not drawn) [Compound 118]	25 to 100	< 25	< 25	25 to 100	+++ (activity was measured to be less than 1.0 μM)	+ (activity was measured to be greater than 5.0 μM)	+ (activity was measured to be greater than 5.0 μM)	+++ (activity was measured to be less than 1.0 μM)
COc1cccc(C(=O)COc2ccccc2C2CCN([C@H]3C[C@H]4CC[C@H]3C4)CC2)c1 [Compound 119]	25 to 100	< 25	25 to 100	25 to 100	++ (activity was measured to be from 1.0 μM to 5.0 μM)	+ (activity was measured to be greater than 5.0 μM)	+ (activity was measured to be greater than 5.0 μM)	+ (activity was measured to be greater than 5.0 μM)

Continued, in another order:

Emax (M4 muscarinic receptor) [%]	Emax (M3 muscarinic receptor) [%]	Emax (M2 muscarinic receptor) [%]	Emax (M1 muscarinic receptor) [%]	SMILES	M4 Activity (M4 muscarinic receptor)	M3 Activity (M3 muscarinic receptor)	M2 Activity (M2 muscarinic receptor)	M1 Activity (M1 muscarinic receptor)
25 to 100	< 25	25 to 100	25 to 100	COc1ccc(-c2ccc(C(C)(C)C#N)cc2)cc1C1CCN(C2CCCCC2)CC1 [Compound 105]	+ (activity was measured to be greater than 5.0 μM)	+ (activity was measured to be greater than 5.0 μM)	+ (activity was measured to be greater than 5.0 μM)	++ (activity was measured to be from 1.0 μM to 5.0 μM)
25 to 100	< 25	25 to 100	25 to 100	CCOC(=O)N1CCC(N2CCC(c3cc(F)ccc3OC)CC2)CC1 [Compound 106]	+++ (activity was measured to be less than 1.0 μM)	+++ (activity was measured to be less than 1.0 μM)	+++ (activity was measured to be less than 1.0 μM)	+++ (activity was measured to be less than 1.0 μM)
25 to 100	< 25	< 25	25 to 100	COc1ccc(C(=O)C(C)(C)C)cc1C1CCN([C@H]2C[C@H]3CC[C@H]2C3)CC1 [Compound 109]	+ (activity was measured to be greater than 5.0 μM)	+ (activity was measured to be greater than 5.0 μM)	+ (activity was measured to be greater than 5.0 μM)	++ (activity was measured to be from 1.0 μM to 5.0 μM)
25 to 100	< 25	< 25	< 25	COc1ccccc1C1CCN(C2CC3CC(C)CC(C3)C2)CC1 (stereo not drawn) [Compound 112]	+ (activity was measured to be greater than 5.0 μM)	+ (activity was measured to be greater than 5.0 μM)	+ (activity was measured to be greater than 5.0 μM)	+ (activity was measured to be greater than 5.0 μM)
25 to 100	< 25	< 25	25 to 100	COc1ccccc1C1CCN(C2CCCCC2)CC1 [Compound 113]	+++ (activity was measured to be less than 1.0 μM)	+ (activity was measured to be greater than 5.0 μM)	+ (activity was measured to be greater than 5.0 μM)	++ (activity was measured to be from 1.0 μM to 5.0 μM)
25 to 100	< 25	< 25	25 to 100	COc1ccc(Cl)cc1C1CCN(C2CCC(F)(F)CC2)CC1 [Compound 115]	++ (activity was measured to be from 1.0 μM to 5.0 μM)	+ (activity was measured to be greater than 5.0 μM)	+ (activity was measured to be greater than 5.0 μM)	+ (activity was measured to be greater than 5.0 μM)
25 to 100	< 25	< 25	25 to 100	COc1ccc(-c2ccc(C(F)(F)F)cc2)cc1C1CCN([C@H]2C[C@H]3CC[C@H]2C3)CC1 [Compound 120]	+ (activity was measured to be greater than 5.0 μM)	+ (activity was measured to be greater than 5.0 μM)	+ (activity was measured to be greater than 5.0 μM)	+ (activity was measured to be greater than 5.0 μM)
